Measured values: patent US10314823B2, “Substituted 1,2-dihydro-3H-pyrrolo[1,2-c]imidazol-3-one antibacterial compounds” (IDORSIA PHARMACEUTICALS LTD, priority 2015, dated 2019)
≈ marks a conversion by molar mass, not a printed value.

What was measured:
Experiment in all cases: Bacterial growth minimal inhibitory concentration (CLSI broth microdilution)
Format in all cases: cell-based
[1] = system: E. coli ATCC25922; conditions: quinolone-sensitive strain, cation-adjusted Mueller-Hinton Broth; for MIC: Escherichia coli, ATCC25922
Procedure: (§1) Minimal Inhibitory Concentrations (MICs; mg/L) were determined in cation-adjusted Mueller-Hinton Broth by a microdilution method following the description given in “Methods for Dilution Antimicrobial Susceptibility Tests for Bacteria that Grow Aerobically”, Approved standard, 7th ed., Clinical and Laboratory Standards Institute (CLSI) Document M7-A7, Wayne, Pa., USA (2006).
(§2) All Reference Example compounds were tested against several Gram-negative bacteria. K. pneumoniae A-651 is a multiply resistant strain (in particular quinolone-resistant), while E. coli ATCC25922 and P. aeruginosa ATCC27853 are quinolone-sensitive strains. The corresponding antibacterial test results are given in Table 1 hereafter (MICs in mg/L).

[2] = system: P. aeruginosa ATCC27853; conditions: quinolone-sensitive strain, cation-adjusted Mueller-Hinton Broth; for MIC: Pseudomonas aeruginosa, ATCC27853
Procedure: as §1, §2

[3] = system: K. pneumoniae A-651; conditions: multiply resistant strain (in particular quinolone-resistant), cation-adjusted Mueller-Hinton Broth; for MIC: Klebsiella pneumoniae, A651
Procedure: as §1, §2

Row | SMILES | MIC for E. coli ATCC25922 [1] [µg/mL] | MIC for P. aeruginosa ATCC27853 [2] [µg/mL] | MIC for K. Pneumoniae A-651 [3] [µg/mL] | MIC [1] [µg/mL] | MIC [2] [µg/mL] | MIC [3] [µg/mL]
1 | C[C@@](CCN1Cc2cc(C#CC#CC3CN(CC(CO)CO)C3)cn2C1=O)(C(=O)NO)S(C)(=O)=O [Example 67, (2R)—N-hydroxy-4-(6-((1-(3-hydroxy-2-(hydroxymethyl)propyl)azetidin-3-yl)buta-1,3-diyn-1-yl)-3-oxo-1H-pyrrolo[1,2-c]imidazol-2(3H)-yl)-2-methyl-2-(methylsulfonyl)butanamide] |  |  |  | 2 (≈ 3.95 µM) | 1 (≈ 1.97 µM) | 2 (≈ 3.95 µM)
2 | CN1CCN(C(=O)OCC2(C#CC#Cc3cc4n(c3)C(=O)N(CC[C@](C)(C(=O)NO)S(C)(=O)=O)C4)CC2)CC1 [Example 23, (3R)-(1-((2-(4-(hydroxyamino)-3-methyl-3-(methylsulfonyl)-4-oxobutyl)-3-oxo-2,3-dihydro-1H-pyrrolo[1,2-c]imidazol-6-yl)buta-1,3-diyn-1-yl)cyclopropyl)methyl 4-methylpiperazine-1-carboxylate] |  |  |  | 4 (≈ 7.15 µM) | 8 (≈ 14.3 µM) | 4 (≈ 7.15 µM)
3 | C[C@@](CCN1Cc2cc(C#Cc3ccc(CN4CC5(COC5)C4)cc3)cn2C1=O)(C(=O)NO)S(C)(=O)=O [Example 3, (2R)-4-(6-((4-((2-oxa-6-azaspiro[3.3]heptan-6-yl)methyl)phenyl)ethynyl)-3-oxo-1H-pyrrolo[1,2-c]imidazol-2(3H)-yl)-N-hydroxy-2-methyl-2-(methylsulfonyl)butanamide] |  |  |  | 0.25 (≈ 0.475 µM) | 1 (≈ 1.9 µM) | 1 (≈ 1.9 µM)
4 | C[C@@](CCN1Cc2cc(C#CC#CC3(COC(=O)N4CC(O)C4)CC3)cn2C1=O)(C(=O)NO)S(C)(=O)=O [Example 22, (3R)-(1-((2-(4-(hydroxyamino)-3-methyl-3-(methylsulfonyl)-4-oxobutyl)-3-oxo-2,3-dihydro-1H-pyrrolo[1,2-c]imidazol-6-yl)buta-1,3-diyn-1-yl)cyclopropyl)methyl 3-hydroxyazetidine-1-carboxylate] |  |  |  | 1 (≈ 1.88 µM) | 4 (≈ 7.51 µM) | 4 (≈ 7.51 µM)
5 | C[C@@](CCN1Cc2cc(C#Cc3ccc(CN4CC(F)C4)cc3)cn2C1=O)(C(=O)NO)S(C)(=O)=O [Example 49, (2R)-4-(6-((4-((3-fluoroazetidin-1-yl)methyl)phenyl)ethynyl)-3-oxo-1H-pyrrolo[1,2-c]imidazol-2(3H)-yl)-N-hydroxy-2-methyl-2-(methylsulfonyl)butanamide] |  |  |  | < 0.063 | 1 (≈ 1.99 µM) | 0.125 (≈ 0.249 µM)
6 | C[C@@](CCN1Cc2cc(C#CC#CCOC(=O)N3CCC(O)CC3)cn2C1=O)(C(=O)NO)S(C)(=O)=O [Example 8, (3R)-5-(2-(4-(hydroxyamino)-3-methyl-3-(methylsulfonyl)-4-oxobutyl)-3-oxo-2,3-dihydro-1H-pyrrolo[1,2-c]imidazol-6-yl)penta-2,4-diyn-1-yl 4-hydroxypiperidine-1-carboxylate] |  |  |  | 1 (≈ 1.92 µM) | 2 (≈ 3.84 µM) | 2 (≈ 3.84 µM)
7 | C[C@@](CCN1Cc2cc(C#CC#CC3(F)CCN(C4COC4)CC3)cn2C1=O)(C(=O)NO)S(C)(=O)=O [Example 47, (2R)-4-(6-((4-fluoro-1-(oxetan-3-yl)piperidin-4-yl)buta-1,3-diyn-1-yl)-3-oxo-1H-pyrrolo[1,2-c]imidazol-2(3H)-yl)-N-hydroxy-2-methyl-2-(methylsulfonyl)butanamide] |  |  |  | 0.5 (≈ 0.96 µM) | 2 (≈ 3.84 µM) | 2 (≈ 3.84 µM)
8 | C[C@@](CCN1Cc2cc(C#Cc3ccc(C4(F)CNC4)cc3)cn2C1=O)(C(=O)NO)S(C)(=O)=O [Example 15, (2R)-4-(6-((4-(3-fluoroazetidin-3-yl)phenyl)ethynyl)-3-oxo-1H-pyrrolo[1,2-c]imidazol-2(3H)-yl)-N-hydroxy-2-methyl-2-(methylsulfonyl)butanamide] |  |  |  | 0.5 (≈ 1.02 µM) | 1 (≈ 2.05 µM) | 2 (≈ 4.09 µM)
9 | CN1CC[C@](F)(C#CC#Cc2cc3n(c2)C(=O)N(CC[C@](C)(C(=O)NO)S(C)(=O)=O)C3)C1.O=C(O)C(F)(F)F (single isomer, unassigned) [Example 72] |  |  |  | 0.5 | 2 | 0.5
10 | C[C@@](CCN1Cc2cc(C#Cc3ccc(CN4CC(O)C4)cc3)cn2C1=O)(C(=O)NO)S(C)(=O)=O [Example 43, (2R)—N-hydroxy-4-(6-((4-((3-hydroxyazetidin-1-yl)methyl)phenyl)ethynyl)-3-oxo-1H-pyrrolo[1,2-c]imidazol-2(3H)-yl)-2-methyl-2-(methylsulfonyl)butanamide] |  |  |  | 0.5 (≈ 0.999 µM) | 0.5 (≈ 0.999 µM) | 2 (≈ 4 µM)

The next lines start with the values.

Row | MIC for E. coli ATCC25922 [1] [µg/mL] | MIC for P. aeruginosa ATCC27853 [2] [µg/mL] | MIC for K. Pneumoniae A-651 [3] [µg/mL] | MIC [1] [µg/mL] | MIC [2] [µg/mL] | MIC [3] [µg/mL] | SMILES
11 | 0.5 | 1 | 0.5 |  |  |  | C[C@@](CCN1Cc2cc(C#CC#CC3CN(C4CC(O)C4)C3)cn2C1=O)(C(=O)NO)S(C)(=O)=O (stereo partly drawn) [Example 90, (2R)—N-hydroxy-4-(6-((1-((1r,3r)-3-hydroxycyclobutyl)azetidin-3-yl)buta-1,3-diyn-1-yl)-3-oxo-1H-pyrrolo[1,2-c]imidazol-2(3H)-yl)-2-methyl-2-(methylsulfonyl)butanamide]
12 |  |  |  | 2 | 4 | 2 | CN1CCC(C)(C#CC#Cc2cc3n(c2)C(=O)N(CC[C@](C)(C(=O)NO)S(C)(=O)=O)C3)C1 (mixture of isomers) [Example 82, (2R)-4-(6-(((3RS)-1,3-dimethylpyrrolidin-3-yl)buta-1,3-diyn-1-yl)-3-oxo-1H-pyrrolo[1,2-c]imidazol-2(3H)-yl)-N-hydroxy-2-methyl-2-(methylsulfonyl)butanamide]
13 |  |  |  | 0.25 (≈ 0.497 µM) | 1 (≈ 1.99 µM) | 0.25 (≈ 0.497 µM) | C[C@@](CCN1Cc2cc(C#CC#CC3CN(C4CCOCC4)C3)cn2C1=O)(C(=O)NO)S(C)(=O)=O [Example 74, (2R)—N-hydroxy-2-methyl-2-(methylsulfonyl)-4-(3-oxo-6-((1-(tetrahydro-2H-pyran-4-yl)azetidin-3-yl)buta-1,3-diyn-1-yl)-1H-pyrrolo[1,2-c]imidazol-2(3H)-yl)butanamide]
14 |  |  |  | 0.5 (≈ 1.04 µM) | 1 (≈ 2.09 µM) | 1 (≈ 2.09 µM) | CN1CCC(F)(C#CC#Cc2cc3n(c2)C(=O)N(CC[C@](C)(C(=O)NO)S(C)(=O)=O)C3)CC1 [Example 46, (2R)-4-(6-((4-fluoro-1-methylpiperidin-4-yl)buta-1,3-diyn-1-yl)-3-oxo-1H-pyrrolo[1,2-c]imidazol-2(3H)-yl)-N-hydroxy-2-methyl-2-(methylsulfonyl)butanamide]
15 |  |  |  | 2 (≈ 4.34 µM) | 4 (≈ 8.69 µM) | 2 (≈ 4.34 µM) | CCC1(C#CC#Cc2cc3n(c2)C(=O)N(CC[C@](C)(C(=O)NO)S(C)(=O)=O)C3)CN(C)C1 [Example 79, (2R)-4-(6-((3-ethyl-1-methylazetidin-3-yl)buta-1,3-diyn-1-yl)-3-oxo-1H-pyrrolo[1,2-c]imidazol-2(3H)-yl)-N-hydroxy-2-methyl-2-(methylsulfonyl)butanamide]
16 |  |  |  | 2 (≈ 4.32 µM) | 2 (≈ 4.32 µM) | 2 (≈ 4.32 µM) | CN1C[C@H](O)[C@@H](C#CC#Cc2cc3n(c2)C(=O)N(CC[C@](C)(C(=O)NO)S(C)(=O)=O)C3)C1 (relative stereo) [Example 99, (2R)—N-hydroxy-4-(6-(((3S*,4R*)-4-hydroxy-1-methylpyrrolidin-3-yl)buta-1,3-diyn-1-yl)-3-oxo-1H-pyrrolo[1,2-c]imidazol-2(3H)-yl)-2-methyl-2-(methylsulfonyl)butanamide]
17 |  |  |  | 0.063 (≈ 0.136 µM) | 0.5 (≈ 1.08 µM) | 0.25 (≈ 0.538 µM) | CN1C[C@H](C#CC#Cc2cc3n(c2)C(=O)N(CC[C@](C)(C(=O)NO)S(C)(=O)=O)C3)[C@H]1CF [Example 98, (2R)—N-hydroxy-4-(6-(((2S,3S)-2-(fluoromethyl)-1-methylazetidin-3-yl)buta-1,3-diyn-1-yl)-3-oxo-1H-pyrrolo[1,2-c]imidazol-2(3H)-yl)-2-methyl-2-(methylsulfonyl)butanamide]
18 |  |  |  | 0.25 (≈ 0.56 µM) | 0.5 (≈ 1.12 µM) | 0.5 (≈ 1.12 µM) | CCN1CC(C#CC#Cc2cc3n(c2)C(=O)N(CC[C@](C)(C(=O)NO)S(C)(=O)=O)C3)C1 [Example 54, (2R)-4-(6-((1-ethylazetidin-3-yl)buta-1,3-diyn-1-yl)-3-oxo-1H-pyrrolo[1,2-c]imidazol-2(3H)-yl)-N-hydroxy-2-methyl-2-(methylsulfonyl)butanamide]
19 |  |  |  | 0.125 (≈ 0.25 µM) | 0.5 (≈ 0.999 µM) | 0.25 (≈ 0.499 µM) | C[C@@](CCN1Cc2cc(C#CC#CC3CN(C4CCCCC4)C3)cn2C1=O)(C(=O)NO)S(C)(=O)=O [Example 70, (2R)-4-(6-((1-cyclohexylazetidin-3-yl)buta-1,3-diyn-1-yl)-3-oxo-1H-pyrrolo[1,2-c]imidazol-2(3H)-yl)-N-hydroxy-2-methyl-2-(methylsulfonyl)butanamide]
20 |  |  |  | 0.25 (≈ 0.525 µM) | 0.5 (≈ 1.05 µM) | 1 (≈ 2.1 µM) | C[C@@](CCN1Cc2cc(C#CC#CC3CN(CCCO)C3)cn2C1=O)(C(=O)NO)S(C)(=O)=O [Example 64, (2R)—N-hydroxy-4-(6-((1-(3-hydroxypropyl)azetidin-3-yl)buta-1,3-diyn-1-yl)-3-oxo-1H-pyrrolo[1,2-c]imidazol-2(3H)-yl)-2-methyl-2-(methylsulfonyl)butanamide]
21 |  |  |  | 4 (≈ 8.69 µM) | 1 (≈ 2.17 µM) | 4 (≈ 8.69 µM) | CN1CCC(C#CC#Cc2cc3n(c2)C(=O)N(CC[C@](C)(C(=O)NO)S(C)(=O)=O)C3)CC1 [Example 34, (2R)—N-hydroxy-2-methyl-4-(6-((1-methylpiperidin-4-yl)buta-1,3-diyn-1-yl)-3-oxo-1H-pyrrolo[1,2-c]imidazol-2(3H)-yl)-2-(methylsulfonyl)butanamide]
